Entries after “also recorded” stand apart in the source; their conditions may differ.
Experiments:
U373 cells = experiment: Intracellular calcium (aequorin luminescence) in U373 cells; format: cell-based, human; details: for increase in intracellular calcium after addition of ryanodine: ryanodine 100 mM as printed, U373 cells, n=2 out of 4 react, 2 out of 4 do not react
Method: (§1) The luminescence was determined using the method recently published (Maeda, A. et al., Anal. Biochem. 242, (1996), 58-66). To do this the cells (1×10^5 cells/vessel) were transferred into the solution of the calcium assay having the following composition (mM): 140 NaCl, 5 KCl, 1.5 MgCl2, 2.5 CaCl2, 5 glucose and 10 HEPES, pH 7.4 adjusted using NaOH, including […] of coelenterazine, the intermediate substrate of aequorine, and incubated for 6 hours at 37° C. The system for measuring luminescence consisted of the spectrofluorometer CAF-110 (Jasco) (Hakamata Y. et al., FEBS Lett. 352, (1994), 206-210), which is connected to a luminescence unit PL-03 (Jasco).
(§2) The total amount of aequorine activity was measured, after permeabilisation of the cells with digitonin, in a final concentration of […].

H4 cells = experiment: Intracellular calcium (aequorin luminescence) in H4 cells; format: cell-based, human; details: H4 neuroglyoma cells
Method: as §1, §2

[1] = test system: chimeric RyR from rabbit RyR2 and human RyR3; experiment: Intracellular calcium signal (fluo-3) in dyspedic myotubes injected with chimeric human RyR3 cDNA; format: cell-based; details: 1 mM caffeine, local injection; dyspedic myotubes expressing chimeric human RyR3; n=5 out of 20 reacted
Text: (§3) The cDNA insert was constructed from the following fragments: EcoRI(vector)/MroI(1232) obtained from IhBRR22, MroI(1232)/HindIII(2956) from IhBRR61, HindIII(2956)/BcII(3506) from IhBRR501, BcII(3506)/PmaCI(4750) from IhBRR51, PmaCI(4750)/PstI(7339) from IhBRR53, PstI(7339)/ClaI(9559) from IhBRR411, ClaI(9559)/SpeI(10569) from IhBRR79, SpeI(10569)/ApaI(11451) from IhBRR407, ApaI(11451)/EcoRI(11815) from IhBRR502, EcoRI(11815)/EcoRI(14861) from IhBRR91. The expression plasmid of the chimeric ryanodine receptor cDNA from human RyR3 and rabbit RyR2 was constructed as follows: the SalI(vector)/PmaCI(5038) fragment was rabbit RyR2 cDNA (Nakai, J. et al. FEBS Lett. 271 (1990), 169-177) and the PmaCI(4750)/NotI(vector) fragment from human RyR3-cDNA was ligated into the SalI/NotI cutting site of pCI-neo. Cultures of myotubes from RyR1-deficient (dyspedic) mice and cDNA injection are already known (Nakai, J. et al., Nature 380, (1996), 72-75). Changes in fluorescence (dimensionless random units) were measured after loading the myotubes with fluo-3 AM (Garcia, J., and Beam, K. G., J. Gen. Physiol. 103, (1994), 107-123). […] The washing solution used was normal Nager-Ringer solution of the following composition (mM): 145 NaCl, 5 KCl, 2 CaCl2, 1 MgCl2, 10 HEPES, pH 7.4 adjusted using NaOH. The temperature was 20-22° C.

[2] = test system: non-injected dyspedic myotubes; experiment: Intracellular calcium signal (fluo-3) in non-injected dyspedic myotubes; format: cell-based, mice; details: 1 mM caffeine, n=0 out of 20 reacted
Text: as §3

ryanodine
increase in intracellular calcium after addition of ryanodine (U373 cells): reacted | increase in intracellular calcium after addition of ryanodine (U373 cells; listed as Ryanodine): triggers temporary calcium fluctuations | increase in calcium after addition of ryanodine (H4 cells; ryanodine 100 mM [sic]): reacted

Cn1c(=O)c2c(ncn2C)n(C)c1=O [caffeine]
intracellular calcium signal as a reaction to caffeine [1]: reacts | intracellular calcium signal as a reaction to caffeine [2]: do not react; also recorded: no reaction whatsoever | increase in intracellular calcium after addition of caffeine (U373 cells; caffeine final concentration 10 mM, U373 astrocytoma cells, n=7, listed as Caffeine): no effect | increase in calcium after addition of caffeine (H4 cells; caffeine final concentration 10 mM): not to caffeine
